# Assay results from paper PMC5665424, “Software-aided approach to investigate peptide structure and metabolic susceptibility of amide bonds in peptide drugs based on high resolution mass spectrometry” (PLoS ONE, 2017).
# “Also recorded” adds a separate entry of the source.
# Legend:
# [1] = molecular target: chymotrypsin (Bos taurus, UniProt P00766); experiment: Incubation with chymotrypsin in simulated intestinal fluid, LC-HRMS; conditions: for site of cleavage (amide hydrolysis) by chymotrypsin: chymotrypsin 500 μg/mL in SIF, 10 μM peptide, 37°C, up to 120 min, metabolite structures from LC-HRMS/MS (Mass-MetaSite)
# Method: (§4) Incubations with dataset-1 were performed using isolated enzymes. We investigated serine proteases like trypsin, chymotrypsin, and pancreatic elastase (E 3.4.21.1, E 3.4.21.4, E 3.4.21.36) at a concentration of 500 μg/mL in simulated intestinal fluid (SIF) and the aspartic protease pepsin (E 3.4.23.1) at a concentration of 500 μg/mL in simulated gastric fluid (SGF). Proteases were purchased from Sigma Aldrich and SIF and SGF were purchased from RICCA Chemical Company (Arlington, TX, USA). […] All incubations were conducted at 37°C.
# Negative control samples were prepared under the same conditions of the incubation (see above), containing each enzyme but without adding probe compounds. Probe compounds were added to 96-well plates (Micronic 0.75 mL V-bottom) using a Hewlett Packard HPD300e. […] Each well was a time point, with five timepoints (0, 5, 15, 45 and 120 min) per compound per protease. Incubations were carried out using a Hamilton MicroLab STAR Plus liquid-handler to initiate, conduct and stop incubation reactions within a single automated method. The incubation plates were placed in heated shakers present on the deck of the liquid-handler and operated at 37°C and 400 rpm shaking speed. Reactions were started with the addition of the enzyme at the appropriate time to allow for all reactions to be quenched at a single time. Incubation quenching was again carried out by the Hamilton STAR Plus with the addition of 100 μL of acetonitrile with 1% formic acid (FA) or 1% ammonium hydroxide (pepsin-only) and the internal standard (melanotan) at a concentration of 1 μM. Following reaction quenching, the samples were vortexed for approximately 2 min and the time zero sample was generated by aliquoting 50 nL of the appropriate stock compound into quenched control samples. The samples were then centrifuged in a Beckman Allegra 25R at 6000 rcf for 20 min at 10°C. Resulting supernatant was transferred to Eppendorf LoBind 96-well plates and 1 μL was injected onto a Waters Acquity BEH-C18 1 x 50 mm, 1.7 μm column via a Waters Acquity M-Class ultra-performance liquid chromatography (UPLC) autosampler. All time points were analyzed using a data-dependent MS/MS method.
# For dataset-1, chromatographic separation of metabolites was performed using the ACQUITY UPLC system (Waters, Milford, MA, USA). The ACQUITY UPLC BEH C18 column (1.0 × 50 mm, 1.7 μm) was heated to 60°C. The mobile phase consisted of 0.1% FA in water (eluent A) and 0.1% formic acid in acetonitrile (eluent B) at a flow rate of 75 μL/min. The initial condition was 10% eluent B, which was maintained for 0.1 min. Eluent B was then increased via a linear gradient to 40% until 3.1 min and further increased to 90% via linear gradient to 3.6 min. Eluent B was then held at 90% until 4.0 min when it was ramped down to 10% by 4.05 min and held until the end of the run at 6 min. […] Full scan/data-dependent MS/MS analyses were run on a Thermo Scientific Q-Exactive Plus mass spectrometer operated in positive electrospray ionization (ESI) mode. The MS and MS/MS acquisition scans were operated with a resolution setting of 17,500 for both, with an automatic gain control (AGC) setting of 1E6 and maximum injection time of 100 ms for MS and AGC of 2E5 and max injection time of 50 ms for full scan/data-dependent MS/MS.
# [2] = molecular target: T1, trypsin (Bos taurus, UniProt P00760); experiment: Incubation with trypsin in simulated intestinal fluid, LC-HRMS
# T1 sequence (P00760 24-246): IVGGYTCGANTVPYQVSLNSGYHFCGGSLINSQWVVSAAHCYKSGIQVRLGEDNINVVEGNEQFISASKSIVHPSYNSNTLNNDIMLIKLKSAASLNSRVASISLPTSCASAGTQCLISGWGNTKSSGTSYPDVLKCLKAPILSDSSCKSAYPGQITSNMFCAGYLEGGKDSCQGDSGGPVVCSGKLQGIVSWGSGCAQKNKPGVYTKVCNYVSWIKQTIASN
# Method: as §4
# Negative control samples were prepared under the same conditions of the incubation (see above), containing each enzyme but without adding probe compounds. Probe compounds were added to 96-well plates (Micronic 0.75 mL V-bottom) using a Hewlett Packard HPD300e. […] Each well was a time point, with five timepoints (0, 5, 15, 45 and 120 min) per compound per protease. Incubations were carried out using a Hamilton MicroLab STAR Plus liquid-handler to initiate, conduct and stop incubation reactions within a single automated method. The incubation plates were placed in heated shakers present on the deck of the liquid-handler and operated at 37°C and 400 rpm shaking speed. Reactions were started with the addition of the enzyme at the appropriate time to allow for all reactions to be quenched at a single time. Incubation quenching was again carried out by the Hamilton STAR Plus with the addition of 100 μL of acetonitrile with 1% formic acid (FA) or 1% ammonium hydroxide (pepsin-only) and the internal standard (melanotan) at a concentration of 1 μM. Following reaction quenching, the samples were vortexed for approximately 2 min and the time zero sample was generated by aliquoting 50 nL of the appropriate stock compound into quenched control samples. The samples were then centrifuged in a Beckman Allegra 25R at 6000 rcf for 20 min at 10°C. […] All time points were analyzed using a data-dependent MS/MS method. […]
# [3] = molecular target: T2, pancreatic elastase (Sus scrofa, UniProt P00772); experiment: Incubation with pancreatic elastase in simulated intestinal fluid, LC-HRMS; type: in vitro ADME, porcine; conditions: elastase 500 μg/mL in SIF pH 7.4-7.6, 10 μM peptide, 37°C, 0, 5, 15, 45, 120 min, internal standard melanotan, Fig 11c
# T2 construct: porcine pancreas; purchased Sigma (Sigma Aldrich) E0258; host or cells: porcine pancreas (tissue-derived)
# T2 sequence (P00772 27-266): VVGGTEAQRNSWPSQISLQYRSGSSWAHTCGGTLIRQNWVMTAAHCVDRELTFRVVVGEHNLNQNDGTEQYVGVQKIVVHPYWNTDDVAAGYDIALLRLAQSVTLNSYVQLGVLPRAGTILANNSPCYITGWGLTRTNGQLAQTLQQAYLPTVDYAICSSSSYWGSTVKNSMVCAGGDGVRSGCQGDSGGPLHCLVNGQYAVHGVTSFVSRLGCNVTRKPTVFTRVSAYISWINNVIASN
# Method: (§1) Incubations with dataset-1 were performed using isolated enzymes. […] All incubations were conducted at 37°C.
# Supporting Table 1: Incubation conditions and proteases characteristics
# Chymotrypsin Trypsin Elastase Pepsin
# αChymotrypsin from Trypsin from Elastase from Pepsin from porcine
# Protease bovine pancreas, bovine pancreas, porcine pancreas, gastric mucosa,
# Internal Melanotan II acetate salt,
# Mobile Phase Water +0.1% formic acid
# Mobile Phase Acetonitrile+0.1% formic acid […]
# Quadrupole -Orbitrap Mass Spectrometer
# [4] = molecular target: T3, dipeptidyl peptidase-4 (DPP-4) (Homo sapiens, UniProt P27487); experiment: Incubation with dipeptidyl peptidase-4 in Hank's buffered salt solution, LC-HRMS; type: in vitro ADME; conditions: DPP-4 2 μg/mL in Hank's buffered salt solution
# T3 construct: purchased Sigma D3446; host or cells: Sf9 cells
# T3 sequence (P27487 whole entry): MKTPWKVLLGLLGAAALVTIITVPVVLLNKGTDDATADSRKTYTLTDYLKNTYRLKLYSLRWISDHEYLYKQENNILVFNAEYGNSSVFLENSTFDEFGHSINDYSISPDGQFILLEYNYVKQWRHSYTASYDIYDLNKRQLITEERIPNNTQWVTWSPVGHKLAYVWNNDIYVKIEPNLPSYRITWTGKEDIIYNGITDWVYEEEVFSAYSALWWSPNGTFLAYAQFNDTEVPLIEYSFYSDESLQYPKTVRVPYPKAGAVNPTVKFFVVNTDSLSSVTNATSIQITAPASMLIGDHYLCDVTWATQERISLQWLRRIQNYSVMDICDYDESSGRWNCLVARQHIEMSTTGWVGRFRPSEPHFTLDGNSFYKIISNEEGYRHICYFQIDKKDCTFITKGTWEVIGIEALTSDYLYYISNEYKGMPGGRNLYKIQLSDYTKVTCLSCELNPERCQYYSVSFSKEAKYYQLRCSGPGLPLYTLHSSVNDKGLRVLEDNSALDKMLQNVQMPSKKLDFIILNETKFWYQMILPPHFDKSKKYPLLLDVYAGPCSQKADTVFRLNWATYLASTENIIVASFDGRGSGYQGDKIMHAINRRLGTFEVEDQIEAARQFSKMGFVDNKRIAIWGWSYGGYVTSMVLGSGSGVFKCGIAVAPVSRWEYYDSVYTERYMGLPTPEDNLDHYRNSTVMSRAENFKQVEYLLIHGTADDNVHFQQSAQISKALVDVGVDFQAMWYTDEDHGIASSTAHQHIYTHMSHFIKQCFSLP
# Method: as §1
# (§2) The dataset-2 peptide incubations were performed at Roche Innovation Center Basel F. Hoffmann-La Roche Ltd., (Hoffmann-La Roche, Basel, Switzerland) using isolated enzymes. For both DPP-4 and NEP incubations, a solution of the respective enzyme in Hank’s buffered salt solution was pre-incubated at 37°C for 3 to 5 min, in 96-well plate Nunc (Thermo Scientific, 163320) before the addition of 30 μL of test substance to give final concentrations of 2 μg/mL DPP-4 or 2 μg/mL NEP. Negative control samples were prepared under the same conditions (see above), containing each enzyme but without adding test compound. […] Reactions were started with the addition of […] and then quenched at each time point with 75 μL cold acetonitrile containing 1% FA followed by thorough mixing. The samples were centrifuged at 4°C for 15 min at 14,000g, and the supernatant was collected. The metabolite profile was immediately analyzed.
# (§3) To generate dataset-2, a Thermo Scientific Dionex UltiMate 3000 RS UPLC system in combination with a Pal autosampler (CTC Analytics AG, Zwingen, Switzerland) was used. Chromatographic separation was performed using an Acquity CSHT Phenyl-Hexyl Column (1.7 μm, 2.1 x 100 mm). The mobile phases consisted of A: H2O/0.1% FA and B: methanol/0.1% FA. […]
# [5] = molecular target: neprilysin (NEP) (Homo sapiens, UniProt P08473); experiment: Incubation with neprilysin in Hank's buffered salt solution, LC-HRMS; conditions: NEP 2 μg/mL in Hank's buffered salt solution, 37°C, 2, 4, 8, 24 hr (GLP-1 0, 5, 15, 30, 60 min), Fig 12b
# neprilysin (NEP), sequence (P08473 whole entry): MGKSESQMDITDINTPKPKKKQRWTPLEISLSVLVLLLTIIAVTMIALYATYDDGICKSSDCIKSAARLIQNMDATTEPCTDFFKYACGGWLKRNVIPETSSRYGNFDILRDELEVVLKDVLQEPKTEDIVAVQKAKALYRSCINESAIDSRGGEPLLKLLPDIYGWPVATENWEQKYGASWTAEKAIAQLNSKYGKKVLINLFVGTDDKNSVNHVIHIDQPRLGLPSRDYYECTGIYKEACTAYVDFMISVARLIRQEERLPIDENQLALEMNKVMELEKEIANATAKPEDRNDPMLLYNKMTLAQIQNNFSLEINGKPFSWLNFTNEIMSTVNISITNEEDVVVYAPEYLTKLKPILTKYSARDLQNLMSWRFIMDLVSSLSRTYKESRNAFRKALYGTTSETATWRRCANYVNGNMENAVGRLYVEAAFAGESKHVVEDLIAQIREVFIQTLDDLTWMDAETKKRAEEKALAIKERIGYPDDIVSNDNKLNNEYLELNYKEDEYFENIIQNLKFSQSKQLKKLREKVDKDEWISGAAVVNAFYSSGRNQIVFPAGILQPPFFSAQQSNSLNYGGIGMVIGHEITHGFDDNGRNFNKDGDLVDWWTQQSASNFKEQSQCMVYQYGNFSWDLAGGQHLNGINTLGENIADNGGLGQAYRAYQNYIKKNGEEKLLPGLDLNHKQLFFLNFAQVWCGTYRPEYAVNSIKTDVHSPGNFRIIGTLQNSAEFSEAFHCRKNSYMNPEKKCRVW
# Method: as §1, §2, §3
compound,measurement,setting,value
"CCNC(=O)[C@@H]1CCCN1C(=O)[C@H](CCCNC(=N)N)NC(=O)[C@H](CC(C)C)NC(=O)[C@@H](COC(C)(C)C)NC(=O)[C@H](Cc1ccc(O)cc1)NC(=O)[C@H](CO)NC(=O)[C@H](Cc1c[nH]c2ccccc12)NC(=O)[C@H](Cc1cnc[nH]1)NC(=O)[C@@H]1CCC(=O)N1 [buserelin, Buserelin]",site of cleavage (amide hydrolysis) by chymotrypsin,[1],amide hydrolysis of the Trp-Ser bond; also recorded: amide hydrolysis of the Tyr-D-Ser(tBu) bond
"Glp-His-Trp-Ser-Tyr-Ser-tBu-Leu-Arg-Pro-NHNHCONH2 [goserelin, Goserelin]",site of cleavage (amide hydrolysis) by trypsin,"[2]; trypsin 500 μg/mL in SIF, 10 μM peptide, 37°C, up to 120 min, metabolite structures from LC-HRMS/MS (Mass-MetaSite)",also when the C-terminal Pro was modified to Pro-NHNHCONH2 in goserelin
"C[C@@H](O)[C@@H]1NC(=O)[C@H](CCCCN)NC(=O)[C@@H](Cc2c[nH]c3ccccc23)NC(=O)[C@H](Cc2ccccc2)NC(=O)[C@@H](NC(=O)[C@H](N)Cc2ccccc2)CSSC[C@@H](C(=O)N[C@H](CO)[C@@H](C)O)NC1=O [octreotide, Octreotide]","metabolic stability with pancreatic elastase: percent parent peptide remaining with respect to time, compared in words",[3],"digested significantly faster than the larger secretin and calcitonin, but it was slower than oxytocin"
"Glp-His-Trp-Ser-Tyr-HisBzl-Leu-Arg-Pro-NHEt [histrelin, Histrelin, synthetic LHRH analogue, Sigma L2761]","metabolic stability with pancreatic elastase: percent parent peptide remaining with respect to time, compared in words",[3],slower than for leuprolide
"CC[C@H](C)[C@@H]1NC(=O)[C@H](Cc2ccc(O)cc2)NC(=O)[C@@H](N)CSSC[C@@H](C(=O)N2CCC[C@H]2C(=O)N[C@@H](CC(C)C)C(=O)NCC(N)=O)NC(=O)[C@H](CC(N)=O)NC(=O)[C@H](CCC(N)=O)NC1=O [oxytocin, Oxytocin]","metabolic stability with trypsin: percent parent peptide remaining with respect to time, compared in words","[2]; trypsin 500 μg/mL in SIF pH 7.4-7.6, 10 μM peptide, 37°C, 0, 5, 15, 45, 120 min, LC-HRMS, internal standard melanotan, Fig 11a",digested slower than calcitonin; also recorded: hydrolyzed slower than all other peptides
same,"metabolic stability with chymotrypsin: percent parent peptide remaining with respect to time, compared in words","[1]; chymotrypsin 500 μg/mL in SIF pH 7.4-7.6, 10 μM peptide, 37°C, 0, 5, 15, 45, 120 min, LC-HRMS, internal standard melanotan, Fig 11b",digested slower than calcitonin
same,site of cleavage (amide hydrolysis) by chymotrypsin,[1],"cleavage of Leu-Gly; also recorded: Tyr-Ile (M1-38, cycle opening)"
"CCCCCCCCCCCCCCCC(=O)N[C@@H](CCC(=O)NCCCC[C@H](NC(=O)[C@H](C)NC(=O)[C@H](C)NC(=O)[C@H](CCC(N)=O)NC(=O)CNC(=O)[C@H](CCC(=O)O)NC(=O)[C@H](CC(C)C)NC(=O)[C@H](Cc1ccc(O)cc1)NC(=O)[C@H](CO)NC(=O)[C@H](CO)NC(=O)[C@@H](NC(=O)[C@H](CC(=O)O)NC(=O)[C@H](CO)NC(=O)[C@@H](NC(=O)[C@H](Cc1ccccc1)NC(=O)[C@@H](NC(=O)CNC(=O)[C@H](CCC(=O)O)NC(=O)[C@H](C)NC(=O)[C@@H](N)Cc1cnc[nH]1)[C@@H](C)O)[C@@H](C)O)C(C)C)C(=O)N[C@@H](CCC(=O)O)C(=O)N[C@@H](Cc1ccccc1)C(=O)N[C@H](C(=O)N[C@@H](C)C(=O)N[C@@H](Cc1c[nH]c2ccccc12)C(=O)N[C@@H](CC(C)C)C(=O)N[C@H](C(=O)N[C@@H](CCCNC(=N)N)C(=O)NCC(=O)N[C@@H](CCCNC(=N)N)C(=O)NCC(=O)O)C(C)C)[C@@H](C)CC)C(=O)O [liraglutide, Liraglutide]","metabolic stability with DPP-4: percent parent peptide remaining with respect to time, compared in words","[4]; 37°C, 2, 4, 8, 24 hr (GLP-1 0, 5, 15, 30, 60 min), LC-HRMS, Fig 12a",digested faster than the other compounds
same,site of cleavage (amide hydrolysis) by DPP-4,"[4]; 37°C, metabolite structures from LC-HRMS/MS (Mass-MetaSite)",mainly metabolized by DPP-4 at the SoC Ala-Glu
same,"metabolic stability with NEP: percent parent peptide remaining with respect to time, compared in words",[5],digested faster than the other compounds; also recorded: NEP acted slower as compared to DPP-4
